Assay results from patent US20250034139A1, “AMINE COMPOUNDS HAVING ANTI-INFLAMMATORY, ANTIFUNGAL, ANTIPARASITIC, AND ANTICANCER ACTIVITY” (PHARMA CINQ, LLC, priority 2013, published 2025).
Marks after values point to notes of the source that are not given here.

Tests used:
[1] = test system: EAE induced by PLP139-151; test: Example G: Experimental Autoimmune Encephalitis (EAE) mouse model of multiple sclerosis; type: in vivo; settings: for EAE Score on Day 46: 60 μmol/kg by oral gavage from Day 14, score 0-5; for EAE Score on Day 14 (Before Treatment): baseline, score 0-5
THP-1 cells = test: Example D: LPS-triggered THP-1 cell death assay, acute/5-hour and chronic/48-hour; type: cell-based, Human; settings: 10 ng/ml LPS, 0.1 μM test compound, 48 hours
Protocol: Compounds of the invention were tested at 0.1 μM versus AC in the LPS-triggered THP-1 cell death assay. Both acute/5-hour and chronic/48-hour phases of cell death were assessed. Compounds were screened in batches with DMSO as the negative control and AC as the high activity control.

[2] = test system: PC3 human prostate cancer cells; test: Example S: in vitro anticancer screen, PC-3 cells, Wst1; type: cell-based; settings: Homo sapiens, PC-3, approximately 20 hours, Wst1, read-out: PC-3, percent of cancer cell survival relative to vehicle treated cells
How it was run: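 Values give percent survival relative to vehicle, read by Wst1 absorbance (450/630 nm) after 2 h dye incubation, in triplicate. Cells were seeded at 2×10^4/well and treated about 20 h with compound at 0.4, 0.5 or 2.5 μM, depending on compound.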

[3] = test system: PC-3 prostate cancer cells; test: Example T: sensitisation of PC-3 cells to doxorubicin, oxaliplatin, paclitaxel or vincristine, Wst1; type: cell-based, human; settings: PC-3 cells, 72 hours; for viability at 2.5 µM: compound 2.5 μM alone; for Doxorubicin 3.5 μM: percent cell survival / Oxaliplatin 100 μM: percent cell survival / Paclitaxel 50 μM: percent cell survival / Vincristine 100 nM: percent cell survival: chemotherapy agent alone normalized to 100%
[4] = test system: 4T1 murine breast cancer cells; test: Example S: in vitro anticancer screen, 4T1 cells, Wst1; type: cell-based, mouse; settings: Mus musculus, 4T1, 18 h, 18 hr, Wst1; for viability at 1 µM: read-out: 4T1 1 μM, percent of cancer cell survival relative to vehicle treated cells; for viability at 5 µM: read-out: 4T1 5 μM, percent of cancer cell survival relative to vehicle treated cells
How it was run: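 Read-out is Wst1 absorbance (450 nm, reference 630 nm) after roughly 2 hr dye incubation, giving percent cell survival versus vehicle. Before that, compounds at 1 μM or 5 μM were applied for 18 hr to 4T1 cells plated at 1×10^4 per well.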

[5] = test system: 4T1 mouse mammary breast cancer cells; test: Example O: syngeneic 4T1 breast cancer growth in Balb/C mice; type: in vivo; settings: for Final Tumor Volume / Δ BW % / Final Body Weight / Initial Body Weight: 4T1 in female Balb/C mice; for Final Tumor Volume: 120 μmol/kg/day oral gavage, day 2 to day 30; for Δ BW % / Final Body Weight / Initial Body Weight: 120 μmol/kg/day oral; for Δ BW %: final vs initial body weight; for Final Body Weight: in g (unit assumed); for Initial Body Weight: initial (baseline)
Protocol: Cancer models in mice generally either involve syngeneic murine tumors in immunocompetent mice or xenografts of human tumors in immunocompromised mice. […] Mice received test compounds by oral gavage in 1% hydroxypropylmethylcellulose from day 2 until day 30. Tumor growth was assessed by caliper measurements twice per week and tumor weight after necropsy, and body weight was also monitored. Treatment groups were: • 1. […] HPMC) • 2. CI (120 μmol/kg/day) • 3. BA (120 μmol/kg/day) • 4. CP (120 μmol/kg/day) • 5. CQ (120 μmol/kg/day) • 6. AA (120 μmol/kg/day) • 7. AC (120 μmol/kg/day)

[6] = test system: HCT-116 colon adenocarcinoma cells; test: Example Q: HCT-116 liver metastases of human colorectal cancer in nude mice; type: in vivo; settings: 240 μmol/kg/day oral, 28 days
From the text: A major cause of morbidity and mortality in patients with colorectal cancer is metastasis of the tumor into the liver; colorectal cancer can often be successfully resected from the primary site, but metastases to the liver are much less accessible to surgical treatment. A mouse model of colorectal cancer metastasis to the liver has been established, using HCT-116 colon adenocarcinoma cells injected into the spleen of athymic (nude) mice. The HCT-116 cancer cells spontaneously spread from the spleen into the liver via the circulation, and they form tumors in the liver (Ishizu, K., Sunose, N., Yamazaki, K., Tsuruo, T., Sadahiro, S., Makuuchi, H., and Yamori, T. Development and Characterization of a Model of Liver Metastasis Using Human Colon Cancer HCT-116. Biol. Pharm. Bull. 2007, 30(9):1779-1783).
Mice (female Hsd:athymic nude-Foxn1^nu) were anesthetized with xylazine/ketamine intraperitoneal injection, followed by incision approximately 10 mm on the left subcostal region (area disinfected with ethanol) to expose the peritoneum. The peritoneum was opened for about 8 mm near the spleen, and 2.5×10^6 cells in 50 μL PBS were injected into the spleen using a 30G needle. The spleen was repositioned, and the surgical area was closed using sutures and clips.
The day after receiving cells, mice were randomized into groups of five based upon body weight to provide groups with approximately equivalent mean body weight. Mice received a single, daily oral dose of test article or vehicle (1% hydroxypropylmethylcellulose) beginning 48 hours following cell injection into the spleen.
At study termination 28 days after HCT-116 cell injection, body weights were recorded, and spleens and livers were removed, weighed and fixed in 10% formalin. Livers were sectioned and stained; the relative areas of normal and tumor tissue were quantified in histology sections with quantitative planimetry software.

[7] = test system: Vit-D3 activated THP-1 cells; test: Example B: Acridine Orange (A.O.) uptake, lysosomal acidification and integrity; type: cell-based, Human; settings: 5 hours
Protocol: In this experiment, cell viability was monitored and uptake and accumulation of acridine orange, a lysosomotropic fluorescent dye, was used to assess lysosomal acidification and integrity. JC-1 dye was used to measure effects of test compounds on mitochondrial membrane potential (MMP); reduction of MMP is a feature of apoptotic cell death. • 1. […] The tubes were washed twice in DPBS, resuspended in 500 μl DPBS and acquired on the FACSCalibur.

S. cerevisiae = test: Example I: Saccharomyces cerevisiae growth inhibition (OD 600 nm); type: cell-based; settings: tested 4 to 50 μM
[8] = test system: Cryptococcus neoformans (serotype D); test: Example K: Cryptococcus neoformans (serotype D) growth inhibition; type: cell-based
[9] = Homo sapiens, Wst1, vehicle = 100, read-out: No Chemo: percent cell survival
[10] = compound 2.5 μM + doxorubicin 3.5 μM
[11] = compound 2.5 μM + oxaliplatin 100 μM
[12] = compound 2.5 μM + paclitaxel 50 μM
[13] = compound 2.5 μM + vincristine 100 nM
[14] = HCT-116 liver metastases, nude mice

Compound | EAE Score on Day 46 [1] | EAE Score on Day 14 (Before Treatment) [1] | Viable cell percent change, Chronic/48-hour, Mean (THP-1 cells) | viability at 2.5 µM [2] | viability at 2.5 µM [3, 9] | Doxorubicin 3.5 μM: percent cell survival [3, 10] | Oxaliplatin 100 μM: percent cell survival [3, 11] | Paclitaxel 50 μM: percent cell survival [3, 12] | Vincristine 100 nM: percent cell survival [3, 13] | viability at 1 µM [4] | viability at 5 µM [4] | Final Tumor Volume [5] | Δ BW % [5] | Final Body Weight [5] | Initial Body Weight [5] | further results
CCCCCCOc1ccccc1OCCNc1ccnc2ccccc12 [CP, N-{2-[2-(Hexyloxy)phenoxy]ethyl}quinolin-4-amine] | 1.86 ± 0.34 | 0.86 ± 0.14 | 49.81% | 35.6% | 35.6% | 72.4% | 76.5% | 74.5% | 48.2% | 82.6% | 38% | 352 ± 114 mm^3 | −0.0% | 24.1 ± 1.3 | 24.1 ± 0.9 g | 
CCCCCCOc1ccccc1OCCCNc1ccnc2ccccc12 [CQ, N-{3-[2-(Hexyloxy)phenoxy]propyl}quinolin-4-amine] |  |  |  | 95.8% | 95.8% | 86.5% | 93.8% | 34.8% | 47.1% | 71.9% | 57.9% | 140 ± 60 mm^3 | −2.0% | 24.4 ± 0.9 | 24.9 ± 0.6 g | excess of the Vehicle group's liver weight/body weight ratio over the treated group [6]: 12%; area of liver invaded by metastatic cancer cells, in words ([6]; histology planimetry): markedly reduced the area of liver invaded by metastatic cancer cells; Final Body Weight Grams [6, 14]: 26.2 ± 0.9 NS Grams; Liver Weight % of Body Weight [6, 14]: 5.3 ± 0.1%; Tumor Area % of Vehicle Group [6, 14]: 0.15% *; Tumor Area % of Total Liver ([6]; HCT-116 liver metastases, nude mice, histology planimetry): 0.02 ± 0.01%; tumor growth versus vehicle-treated mice, in words ([5]; daily oral administration, 120 μM/kg/day as printed): most active of the compounds tested in this experiment
CCCCCCOc1ccc(OCCCCNc2ccnc3ccccc23)cc1 [CZ, N-{4-[4-(Hexyloxy)phenoxy]butyl}quinolin-4-amine] | 2.29 ± 0.20 | 1.00 ± 0.00 | 53.70% |  |  |  |  |  |  | 50.6% | 28.3% |  |  |  |  | viability at 0.4 µM ([2]; 0.4 μM): 96.7%; viability at 0.4 µM ([3]; Homo sapiens, compound 0.4 μM alone, Wst1, vehicle = 100, read-out: No Chemo: percent cell survival): 96.7%; Doxorubicin 3.5 μM: percent cell survival ([3]; compound 0.4 μM + doxorubicin 3.5 μM): 89.1%; Oxaliplatin 100 μM: percent cell survival ([3]; compound 0.4 μM + oxaliplatin 100 μM): 91.1%; Paclitaxel 50 μM: percent cell survival ([3]; compound 0.4 μM + paclitaxel 50 μM): 101.9%; Vincristine 100 nM: percent cell survival ([3]; compound 0.4 μM + vincristine 100 nM): 90.3%
CCN(CC)CCCC(C)Nc1ccnc2cc(Cl)ccc12 (stereo not drawn) [Chloroquine, Chloroquine diphosphate, reference compound] |  |  |  |  |  |  |  |  |  |  |  |  |  |  |  | A.O. FL-3 fluorescence (MFI) percent change from DMSO no LPS, Mean ± SE ([7]; 50.0 μM C.Q., 1 ng/ml LPS): −72.28 ± 0.78%; A.O. FL-3 fluorescence (MFI) percent change from DMSO no LPS, Mean ± SE ([7]; 100.0 μM C.Q., 1 ng/ml LPS): −88.28 ± 1.60%; A.O. FL-3 fluorescence (MFI) percent change from DMSO no LPS, Mean ± SE ([7]; 100.0 μM C.Q., No LPS): −91.25 ± 0.60%; inactive compound (inhibition of yeast growth, in words) (S. cerevisiae): did not show any inhibition of yeast growth up to 50 uM; IC50 ([8]; Cryptococcus deneoformans): > 100 µM; growth inhibition of Cryptococcus neoformans (maximum) ([8]; chloroquine at a concentration of 100 micromolar): less than 50%; inhibition at 100 µM ([8]; read-out: growth inhibition of Cryptococcus neoformans (maximum), chloroquine at a concentration of 100 micromolar): 40%
CN(C(=O)c1c(O)c2ccccc2n(C)c1=O)c1ccccc1 [Linomide, reference compound] | 2.29 ± 0.48 | 0.93 ± 0.19 |  |  |  |  |  |  |  |  |  |  |  |  |  | 
